In patent US11168073B2, “3,3-difluoroallylamines or salts thereof and pharmaceutical compositions comprising the same” (YUHAN CORPORATION, priority 2018, dated 2021):
Where a name gives a salt, the structure may show the parent alone.

Assays:
Assay type in all cases: biochemical
recombinant human VAP-1 = biological target: T1, recombinant human VAP-1 (Homo sapiens, UniProt Q16853); test: Activity evaluation on recombinant human VAP-1 (Amplex Red/HRP-coupled hydrogen peroxide assay, benzylamine substrate); settings: recombinant human VAP-1; 30 min preincubation at 37° C.; 1 mM benzylamine; read-out: Inhibitory Activity (IC50, nM) human VAP-1
T1 construct: purchased R&D systems
T1 sequence (Q16853 1-763): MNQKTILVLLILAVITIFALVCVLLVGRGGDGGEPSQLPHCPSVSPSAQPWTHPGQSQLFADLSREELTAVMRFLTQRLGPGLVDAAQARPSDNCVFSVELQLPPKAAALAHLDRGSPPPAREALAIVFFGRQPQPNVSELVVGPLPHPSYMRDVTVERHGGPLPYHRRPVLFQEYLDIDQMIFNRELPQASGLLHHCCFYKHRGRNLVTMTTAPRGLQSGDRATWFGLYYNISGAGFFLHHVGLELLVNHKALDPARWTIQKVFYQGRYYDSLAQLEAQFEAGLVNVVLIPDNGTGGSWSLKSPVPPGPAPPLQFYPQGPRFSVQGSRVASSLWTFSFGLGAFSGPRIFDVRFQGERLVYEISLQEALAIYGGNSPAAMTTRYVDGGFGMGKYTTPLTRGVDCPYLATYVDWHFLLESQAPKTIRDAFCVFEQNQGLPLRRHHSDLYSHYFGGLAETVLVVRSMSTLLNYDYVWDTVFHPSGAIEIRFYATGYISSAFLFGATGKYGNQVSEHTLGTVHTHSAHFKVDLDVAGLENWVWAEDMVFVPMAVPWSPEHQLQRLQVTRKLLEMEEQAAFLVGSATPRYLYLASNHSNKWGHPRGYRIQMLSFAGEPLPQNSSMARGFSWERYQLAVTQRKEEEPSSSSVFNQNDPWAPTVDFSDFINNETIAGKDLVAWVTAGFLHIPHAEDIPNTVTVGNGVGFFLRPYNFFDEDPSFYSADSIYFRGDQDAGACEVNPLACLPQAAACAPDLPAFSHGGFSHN
Summary of the method: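 Hydrogen peroxide from benzylamine (1 mM) oxidation by human recombinant VAP-1 detected via HRP-coupled Amplex Red (200 uM) fluorescence, kinetic over 1–2 h. Enzyme and compound preincubated 30 min at 37 °C, pH 7.4 phosphate; 8-point dose response, signal-rate decrease versus DMSO control fitted to four-parameter logistic for IC50.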

[1] = biological target: T2, recombinant human MAO-A (monoamine oxidase-A) (Homo sapiens, UniProt P21397); test: Activity evaluation on recombinant human MAO-A (Amplex Red/HRP-coupled assay, 0.5 mM tyramine substrate); settings: 0.5 mM tyramine, read-out: Inhibitory Activity (IC50, nM) MAO-A
T2 construct: purchased Sigma-Aldrich
T2 sequence (P21397 1-527): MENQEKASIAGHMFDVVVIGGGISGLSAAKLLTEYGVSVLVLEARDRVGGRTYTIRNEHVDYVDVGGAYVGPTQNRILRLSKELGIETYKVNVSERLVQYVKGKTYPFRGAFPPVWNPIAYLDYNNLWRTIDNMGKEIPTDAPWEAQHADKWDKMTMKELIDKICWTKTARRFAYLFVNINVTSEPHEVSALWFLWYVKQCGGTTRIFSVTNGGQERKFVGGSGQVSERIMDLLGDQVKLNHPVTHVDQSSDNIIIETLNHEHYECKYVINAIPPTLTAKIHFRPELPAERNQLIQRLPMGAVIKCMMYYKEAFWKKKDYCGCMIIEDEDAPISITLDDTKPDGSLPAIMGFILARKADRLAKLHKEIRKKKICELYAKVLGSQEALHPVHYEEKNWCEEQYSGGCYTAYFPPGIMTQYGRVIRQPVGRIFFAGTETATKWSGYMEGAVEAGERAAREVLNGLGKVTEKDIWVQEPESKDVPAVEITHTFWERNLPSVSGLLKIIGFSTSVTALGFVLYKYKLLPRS
Summary of the method: (§1)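 Using an HRP-coupled Amplex Red readout (544/590 nm, kinetic over 1–2 h), IC50 values were fitted by 4-parameter logistic model to percent decrease in signal rate against DMSO control. Compounds (1:3 dilutions, 8 points, <1% DMSO) sat 30 min at 37 °C with enzyme in pH 7.4 phosphate buffer before substrate, 200 uM Amplex Red and HRP were added.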

[2] = biological target: T3, recombinant human MAO-B (monoamine oxidase-B) (Homo sapiens, UniProt P27338); test: Activity evaluation on recombinant human MAO-B (Amplex Red/HRP-coupled assay, 1 mM benzylamine substrate); settings: 1 mM benzylamine, read-out: Inhibitory Activity (IC50, nM) MAO-B
T3 construct: purchased Sigma-Aldrich
T3 sequence (P27338 1-520): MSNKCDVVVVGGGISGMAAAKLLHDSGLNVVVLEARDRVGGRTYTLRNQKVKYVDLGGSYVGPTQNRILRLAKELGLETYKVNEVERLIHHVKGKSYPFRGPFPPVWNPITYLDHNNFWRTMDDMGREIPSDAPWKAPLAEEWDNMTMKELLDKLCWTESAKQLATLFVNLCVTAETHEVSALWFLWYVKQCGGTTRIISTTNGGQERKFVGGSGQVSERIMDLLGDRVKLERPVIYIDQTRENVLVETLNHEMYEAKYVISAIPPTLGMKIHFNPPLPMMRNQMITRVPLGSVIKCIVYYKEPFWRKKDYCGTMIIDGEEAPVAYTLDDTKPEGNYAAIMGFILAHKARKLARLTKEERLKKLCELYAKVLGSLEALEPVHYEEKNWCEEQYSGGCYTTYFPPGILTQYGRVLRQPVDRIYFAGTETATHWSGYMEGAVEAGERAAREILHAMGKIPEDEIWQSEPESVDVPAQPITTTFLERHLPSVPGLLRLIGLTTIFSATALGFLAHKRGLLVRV
Summary of the method: as §1

[3] = biological target: T4, recombinant human DAO (diamine oxidase) (Homo sapiens, UniProt P19801); test: Activity evaluation on recombinant human DAO (Amplex Red/HRP-coupled assay, 1 mM putrescine substrate); settings: 1 mM putrescine, read-out: Inhibitory Activity (IC50, nM) DAO
T4 construct: purchased R&D systems
T4 sequence (P19801 20-751): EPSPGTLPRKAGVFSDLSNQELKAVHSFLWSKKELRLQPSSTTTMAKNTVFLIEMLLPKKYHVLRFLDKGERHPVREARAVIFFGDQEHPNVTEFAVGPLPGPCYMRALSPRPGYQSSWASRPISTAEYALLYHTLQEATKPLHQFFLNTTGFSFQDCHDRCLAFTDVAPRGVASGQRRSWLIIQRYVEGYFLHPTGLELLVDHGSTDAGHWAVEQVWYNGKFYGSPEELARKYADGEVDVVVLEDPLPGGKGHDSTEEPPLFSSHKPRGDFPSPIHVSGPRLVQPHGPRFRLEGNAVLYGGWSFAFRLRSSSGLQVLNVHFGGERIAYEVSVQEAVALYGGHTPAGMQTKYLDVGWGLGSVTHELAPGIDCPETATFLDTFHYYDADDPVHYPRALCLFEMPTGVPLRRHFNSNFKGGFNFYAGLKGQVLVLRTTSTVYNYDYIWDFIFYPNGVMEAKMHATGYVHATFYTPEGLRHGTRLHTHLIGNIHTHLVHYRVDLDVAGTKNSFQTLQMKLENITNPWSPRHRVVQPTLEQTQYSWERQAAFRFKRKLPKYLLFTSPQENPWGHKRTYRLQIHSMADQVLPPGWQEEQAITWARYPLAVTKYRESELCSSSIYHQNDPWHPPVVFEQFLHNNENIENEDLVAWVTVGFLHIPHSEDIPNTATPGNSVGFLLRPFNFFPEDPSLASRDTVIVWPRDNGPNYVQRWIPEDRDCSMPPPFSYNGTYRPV
Summary of the method: as §1

Row | IC50 (recombinant human VAP-1) | IC50 [1] | IC50 [2] | IC50 [3] | SMILES
1 | 0.3 nM | > 100000 nM | 8200 nM | 230 nM | CCn1cc(-c2cnc(-n3cnn(CC(CN)=C(F)F)c3=O)c(F)c2)cn1 [Example 88, 2-[2-(aminomethyl)-3,3-difluoro-allyl]-4-[5-(1-ethylpyrazol-4-yl)-3-fluoro-2-pyridyl]-1,2,4-triazol-3-one Trifluoroacetate]
2 | 0.6 nM | > 100000 nM | 1900 nM | 2 nM | CS(=O)(=O)c1ccc(-c2cnc(-n3cnn(CC(CN)=C(F)F)c3=O)cn2)cc1 [Example 89, 2-[2-(aminomethyl)-3,3-difluoro-allyl]-4-[5-(4-methylsulfonylphenyl)-pyrazin-2-yl]-1,2,4-triazol-3-one Trifluoroacetate]
3 | 1.3 nM | > 100000 nM | > 100000 nM | 30 nM | NCC(Cn1ncn(-c2cnc(-c3ccc(N4CCNCC4)cc3)cn2)c1=O)=C(F)F [Example 90, 2-[2-(aminomethyl)-3,3-difluoro-allyl]-4-[5-(4-piperazin-1-ylphenyl)pyrazin-2-yl]-1,2,4-triazol-3-one Ditrifluoroacetate]
4 | 0.5 nM | > 100000 nM | 200 nM | 1 nM | NCC(Cn1ncn(-c2cnc(-c3ccc(C(F)(F)F)nc3)cn2)c1=O)=C(F)F [Example 91, 2-[2-(aminomethyl)-3,3-difluoro-allyl]-4-[5-[6-(trifluoromethyl)-3-pyridyl]pyrazin-2-yl]-1,2,4-triazol-3-one Trifluoroacetate]
5 | 0.2 nM | > 100000 nM | 6200 nM | 8 nM | CN(C)c1ccc(-c2cnc(-n3cnn(CC(CN)=C(F)F)c3=O)cn2)cn1 [Example 92, 2-[2-(aminomethyl)-3,3-difluoro-allyl]-4-[5-[6-(dimethylamino)-3-pyridyl]pyrazin-2-yl]-1,2,4-triazol-3-one Trifluoroacetate]
6 | 0.3 nM | > 100000 nM | 50 nM | 21 nM | NCC(Cn1ncn(-c2cnc(-c3ccc4c(c3)OCO4)cn2)c1=O)=C(F)F [Example 93, 2-[2-(aminomethyl)-3,3-difluoro-allyl]-4-[5-(1,3-benzodioxol-5-yl)pyrazin-2-yl]-1,2,4-triazol-3-one Trifluoroacetate]
7 | 0.2 nM | > 100000 nM | 860 nM | 4 nM | CN1C(=O)CCc2cc(-c3cnc(-n4cnn(CC(CN)=C(F)F)c4=O)cn3)ccc21 [Example 94, 6-[5-[1-[2-(aminomethyl)-3,3-difluoro-allyl]-5-oxo-1,2,4-triazol-4-yl]pyrazin-2-yl]-1-methyl-3,4-dihydro-1H-quinolin-2-one Trifluoroacetate]
8 | 0.6 nM | > 100000 nM | 1300 nM | 19 nM | CCn1cc(-c2cnc(-n3cnn(CC(CN)=C(F)F)c3=O)cn2)cn1 [Example 95, 2-[2-(aminomethyl)-3,3-difluoro-allyl]-4-[5-(1-ethylpyrazol-4-yl)pyrazin-2-yl]-1,2,4-triazol-3-one Trifluoroacetate]
9 | 13 nM | > 100000 nM | 220 nM | > 100000 nM | NCC(Cn1ncn(Cc2ccc(OCc3ccccc3)cc2)c1=O)=C(F)F [Example 96, 2-[2-(aminomethyl)-3,3-difluoro-allyl]-4-[(4-benzyloxyphenyl)methyl]-1,2,4-triazol-3-one Trifluoroacetate]
10 | 1.3 nM | > 100000 nM | 20000 nM | > 10000 nM | NCC(Cn1ncn(Cc2ccc(Br)s2)c1=O)=C(F)F [Example 97, 2-[2-(aminomethyl)-3,3-difluoro-allyl]-4-[(5-bromo-2-thienyl)methyl]-1,2,4-triazol-3-one Trifluoroacetate]
11 | 23 nM | > 100000 nM | 13900 nM | 18600 nM | NCC(Cn1ncn(Cc2cc(Br)cs2)c1=O)=C(F)F [Example 98, 2-[2-(aminomethyl)-3,3-difluoro-allyl]-4-[(4-bromo-2-thienyl)methyl]-1,2,4-triazol-3-one Trifluoroacetate]
12 | 9.3 nM | > 100000 nM | 21000 nM | > 100000 nM | Cc1cc(Br)sc1Cn1cnn(CC(CN)=C(F)F)c1=O [Example 99, 2-[2-(aminomethyl)-3,3-difluoro-allyl]-4-[(5-bromo-3-methyl-2-thienyl)methyl]-1,2,4-triazol-3-one Trifluoroacetate]
13 | 0.5 nM | > 100000 nM | 11000 nM | > 10000 nM | CC(=O)c1ccc(-c2ccc(Cn3cnn(CC(CN)=C(F)F)c3=O)s2)cc1 [Example 100, 4-[[5-(4-acetylphenyl)-2-thienyl]methyl]-2-[2-(aminomethyl)-3,3-difluoro-allyl]-1,2,4-triazol-3-one trifluoroacetate]
14 | 0.3 nM | > 100000 nM | 67000 nM | 21000 nM | CS(=O)(=O)c1ccc(-c2ccc(Cn3cnn(CC(CN)=C(F)F)c3=O)s2)cc1 [Example 101, 2-[2-(aminomethyl)-3,3-difluoro-allyl]-4-[[5-(4-methylsulfonylphenyl)-2-thienyl]methyl]-1,2,4-triazol-3-one Trifluoroacetate]
